Source: the NIST ThermoML archive (doi:10.1016/j.fluid.2016.11.022)
Numbers after ± are expanded uncertainties.

Legend:
[1] = Liquid; for self diffusion coefficient: NMR
[2] = xn = mol fraction of the nth substance listed; settings: 343.15 K, Liquid; for viscosity: Oscillating piston [Cambridge Applied Systems Model]; for molar volume: High-pressure cell with syringe pump

Compound: CCCCCC[n+]1ccn(C)c1.O=S(=O)([N-]S(=O)(=O)C(F)(F)F)C(F)(F)F
- self diffusion coefficient ([1]; 298.15 K, 100 kPa): 1.79e-11 m2/s
- self diffusion coefficient ([1]; 323.15 K, 100 kPa): 5.54e-11 m2/s
- self diffusion coefficient ([1]; 343.15 K, 100 kPa): 1.07e-10 m2/s
- viscosity ([1]; 343.15 K, 100 kPa, Oscillating piston [Cambridge Applied Systems Model]): 14.07 ± 0.35 mPa·s

Compound: CCCCCC[n+]1ccn(C)c1.O=S(=O)([N-]S(=O)(=O)C(F)(F)F)C(F)(F)F + FCC(F)(F)F
- viscosity ([2]; 100 kPa, x2 = 0): 14.07 ± 0.35 mPa·s

Compound: FCC(F)(F)F [1,1,1,2-tetrafluoroethane]
- self diffusion coefficient ([1]; 298.15 K, 670 kPa): 5.95e-09 m2/s

Compound: FCC(F)(F)F [1,1,1,2-tetrafluoroethane] + CCCCCC[n+]1ccn(C)c1.O=S(=O)([N-]S(=O)(=O)C(F)(F)F)C(F)(F)F
- molar volume ([2]; 84 kPa, x1 = 0.0397): 0.0003358 ± 3.2e-06 m3/mol
- molar volume ([2]; 212 kPa, x1 = 0.1086): 0.0003159 ± 2.8e-06 m3/mol
- viscosity ([2]; 310 kPa, x1 = 0.148): 12.62 ± 0.31 mPa·s
- molar volume ([2]; 395 kPa, x1 = 0.1956): 0.0002928 ± 2.6e-06 m3/mol
- viscosity ([2]; 610 kPa, x1 = 0.276): 11.97 ± 1.3 mPa·s
- molar volume ([2]; 615 kPa, x1 = 0.2904): 0.0002669 ± 2.2e-06 m3/mol
- viscosity ([2]; 850 kPa, x1 = 0.364): 9.33 ± 1.6 mPa·s
- molar volume ([2]; 971 kPa, x1 = 0.4272): 0.0002313 ± 1.8e-06 m3/mol
- viscosity ([2]; 1130 kPa, x1 = 0.459): 8.09 ± 0.18 mPa·s
- molar volume ([2]; 1320 kPa, x1 = 0.5508): 0.0001984 ± 1.4e-06 m3/mol
- viscosity ([2]; 1470 kPa, x1 = 0.575): 7.06 ± 0.3 mPa·s
- molar volume ([2]; 1732 kPa, x1 = 0.6867): 0.0001653 ± 1e-06 m3/mol
- molar volume ([2]; 1956 kPa, x1 = 0.777): 0.0001436 ± 8e-07 m3/mol
- molar volume ([2]; 2016 kPa, x1 = 0.8075): 0.0001367 ± 6e-07 m3/mol
- viscosity ([2]; 2030 kPa, x1 = 0.813): 3.24 ± 0.07 mPa·s
- molar volume ([2]; 2064 kPa, x1 = 0.8427): 0.0001289 ± 6e-07 m3/mol
- molar volume ([2]; 2075 kPa, x1 = 0.8572): 0.0001265 ± 4e-07 m3/mol
